According to ChEMBL document CHEMBL2074034, “Characterization of cloned mouse Na+/taurocholate cotransporting polypeptide by transient expression in COS-7 cells” (Biosci Biotechnol Biochem, 2002):

Experiments:
Type in all cases: functional, cell-based
Conditions in all cases: monkey, cos-7, 72 µM
[1] = target: T1, Hepatic sodium/bile acid cotransporter (Mus musculus, UniProt O08705); test: TP_TRANSPORTER: inhibition of Taurocholate uptake (Taurocholate: 0.72 uM, Deoxycholate: 72 uM) in Ntcp-expressing COS-7 cells
T1 sequence (O08705 whole entry): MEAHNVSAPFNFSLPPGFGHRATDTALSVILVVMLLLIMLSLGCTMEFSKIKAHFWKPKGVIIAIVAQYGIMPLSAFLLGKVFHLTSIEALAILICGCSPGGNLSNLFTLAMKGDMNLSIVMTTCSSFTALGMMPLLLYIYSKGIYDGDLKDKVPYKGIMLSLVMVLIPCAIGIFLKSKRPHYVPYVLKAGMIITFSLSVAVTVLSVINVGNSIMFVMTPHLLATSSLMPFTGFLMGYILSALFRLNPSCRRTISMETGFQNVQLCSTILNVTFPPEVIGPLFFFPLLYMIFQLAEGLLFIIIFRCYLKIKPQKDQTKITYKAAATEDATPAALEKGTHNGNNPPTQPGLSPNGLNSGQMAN

[2] = target: T1, Hepatic sodium/bile acid cotransporter; test: TP_TRANSPORTER: inhibition of Taurocholate uptake (Taurocholate: 0.72 uM, Lithocholate: 72 uM) in Ntcp-expressing COS-7 cells
[3] = target: T1, Hepatic sodium/bile acid cotransporter; test: TP_TRANSPORTER: inhibition of Taurocholate uptake (Taurocholate: 0.72 uM, GC: 72 uM) in Ntcp-expressing COS-7 cells
[4] = target: T1, Hepatic sodium/bile acid cotransporter; test: TP_TRANSPORTER: inhibition of Taurocholate uptake (Taurocholate: 0.72 uM, CDCA: 72 uM) in Ntcp-expressing COS-7 cells

Question: `C[C@H](CCC(=O)O)[C@H]1CC[C@H]2[C@@H]3CC[C@@H]4C[C@H](O)CC[C@]4(C)[C@H]3C[C@H](O)[C@]12C` [DEOXYCHOLIC ACID] was tested. Which Activity [1] did it give?
Answer: inhibitor [(at a rough estimate) 20 % of control]

Question: `C[C@H](CCC(=O)O)[C@H]1CC[C@H]2[C@@H]3CC[C@@H]4C[C@H](O)CC[C@]4(C)[C@H]3CC[C@]12C` [LITHOCHOLIC ACID] was tested. Which Activity [2] did it give?
Answer: inhibitor [(at a rough estimate) 5 % of control]

Question: For `C[C@H](CCC(=O)NCC(=O)O)[C@H]1CC[C@H]2[C@@H]3[C@H](O)C[C@@H]4C[C@H](O)CC[C@]4(C)[C@H]3C[C@H](O)[C@]12C` [GLYCOCHOLIC ACID], which Activity [3] is on record?
Answer: inhibitor [(at a rough estimate) 40 % of control]

Question: Which Activity [4] does the source give for `C[C@H](CCC(=O)O)[C@H]1CC[C@H]2[C@@H]3[C@H](O)C[C@@H]4C[C@H](O)CC[C@]4(C)[C@H]3CC[C@]12C` [CHENODIOL] here?
Answer: inhibitor [(at a rough estimate) 20 % of control]
